Results as given in ChEMBL document CHEMBL5724914, “Linking interpersonal differences in gut microbiota composition and drug biotransformation activity” (2024).

Experiments:
[1] = (§1) The drug is tested on Z-027 corresponding to metagenome with ENA study accession number: PRJEB37062 and ENA sample accession number: ERS12561826 for biotransformation under anaerobic condition. The drug concentrations were measured over 9 timepoints collected between 0 and 24 hours of incubation by liquid-chromatography-coupled mass spectrometry (LC–MS); details: 2 µM
[2] = (§2) The drug is tested on Z-018 corresponding to pig gut metagenome with ENA study accession number: PRJEB37062 and ENA sample accession number: ERS12561817 for biotransformation under anaerobic condition. The drug concentrations were measured over 9 timepoints collected between 0 and 24 hours of incubation by liquid-chromatography-coupled mass spectrometry (LC–MS); details: 2 µM
[3] = human gut metagenome, 24 h, 2 µM
[4] = as §2, with “WLS-052” for “Z-018”, “human” for “pig”, “ERS12561747” for “ERS12561817”; details: 2 µM
[5] = human gut metagenome, 24 h, 2 µM; remark: listed apart in the source
[6] = as §2, with “WLS-007” for “Z-018”, “human” for “pig”, “ERS12561742” for “ERS12561817”; details: 2 µM
[7] = human gut metagenome, 24 h, 2 µM; remark: listed apart in the source
[8] = as §2, with “WLS-220” for “Z-018”, “human” for “pig”, “ERS12561769” for “ERS12561817”; details: 2 µM
[9] = as §2, with “WLS-039” for “Z-018”, “human” for “pig”, “ERS12561746” for “ERS12561817”; details: 2 µM
[10] = human gut metagenome, 24 h, 2 µM; remark: listed apart in the source
[11] = human gut metagenome, 24 h, 2 µM; remark: listed apart in the source
[12] = as §2, with “Z-019” for “Z-018”, “rat” for “pig”, “ERS12561818” for “ERS12561817”; details: 2 µM
[13] = human gut metagenome, 24 h, 2 µM; remark: listed apart in the source
[14] = as §2, with “Z-016” for “Z-018”, “mouse” for “pig”, “ERS12561815” for “ERS12561817”; details: 2 µM
[15] = as §2, with “WLS-077” for “Z-018”, “human” for “pig”, “ERS12561750” for “ERS12561817”; details: 2 µM
[16] = as §1, with “Z-004” for “Z-027”, “ERS12561804” for “ERS12561826”; details: 2 µM
[17] = human gut metagenome, 24 h, 2 µM; remark: listed apart in the source
[18] = as §2, with “WLS-082” for “Z-018”, “human” for “pig”, “ERS12561751” for “ERS12561817”; details: 2 µM
[19] = human gut metagenome, 24 h, 2 µM; remark: listed apart in the source
[20] = as §2, with “WLS-310” for “Z-018”, “human” for “pig”, “ERS12561785” for “ERS12561817”; details: 2 µM
Further: call rule not given here.

Row | SMILES | Bacterial Biotransformation [1] | Bacterial Biotransformation [2] | Bacterial Biotransformation [3] | Bacterial Biotransformation [4] | Bacterial Biotransformation [5] | Bacterial Biotransformation [6] | Bacterial Biotransformation [7] | Bacterial Biotransformation [8] | Bacterial Biotransformation [9] | Bacterial Biotransformation [10] | Bacterial Biotransformation [11] | Bacterial Biotransformation [12] | Bacterial Biotransformation [13] | Bacterial Biotransformation [14] | Bacterial Biotransformation [15] | Bacterial Biotransformation [16] | Bacterial Biotransformation [17] | Bacterial Biotransformation [18] | Bacterial Biotransformation [19] | Bacterial Biotransformation [20]
1 | CCCCCOC(=O)Nc1nc(=O)n([C@@H]2O[C@H](C)[C@@H](O)[C@H]2O)cc1F [CAPECITABINE] | Compound metabolized | Compound metabolized | Compound metabolized | Compound metabolized | Compound metabolized | Compound metabolized | Compound metabolized | Compound metabolized | Compound metabolized | Compound metabolized | Compound metabolized | Compound NOT metabolized | Compound metabolized | Compound metabolized | Compound metabolized | Compound metabolized | Compound metabolized | Compound metabolized | Compound NOT metabolized | Compound metabolized
2 | Cc1ccc(-c2cc(C(F)(F)F)nn2-c2ccc(S(N)(=O)=O)cc2)cc1 [CELECOXIB] | Compound NOT metabolized | Compound NOT metabolized | Compound NOT metabolized | Compound metabolized | Compound metabolized | Compound metabolized | Compound metabolized | Compound metabolized | Compound metabolized | Compound metabolized | Compound metabolized | Compound NOT metabolized | Compound NOT metabolized | Compound NOT metabolized | Compound metabolized | Compound NOT metabolized | Compound metabolized | Compound metabolized | Compound NOT metabolized | Compound NOT metabolized
3 | CN1C(=O)CCS(=O)(=O)C1c1ccc(Cl)cc1 (stereo not given) [CHLORMEZANONE] | Compound NOT metabolized | Compound NOT metabolized | Compound NOT metabolized | Compound NOT metabolized | Compound metabolized | Compound NOT metabolized | Compound metabolized | Compound NOT metabolized | Compound NOT metabolized | Compound metabolized | Compound NOT metabolized | Compound NOT metabolized | Compound NOT metabolized | Compound NOT metabolized | Compound NOT metabolized | Compound NOT metabolized | Compound NOT metabolized | Compound NOT metabolized | Compound NOT metabolized | Compound NOT metabolized
4 | CN1CCN(C2=Nc3cc(Cl)ccc3Nc3ccccc32)CC1 [CLOZAPINE] | Compound NOT metabolized | Compound NOT metabolized | Compound NOT metabolized | Compound NOT metabolized | Compound metabolized | Compound NOT metabolized | Compound metabolized | Compound metabolized | Compound metabolized | Compound metabolized | Compound NOT metabolized | Compound NOT metabolized | Compound metabolized | Compound NOT metabolized | Compound NOT metabolized | Compound NOT metabolized | Compound metabolized | Compound NOT metabolized | Compound NOT metabolized | Compound metabolized
5 | COc1cc2c(c(OC)c1OC)-c1ccc(OC)c(=O)cc1[C@@H](NC(C)=O)CC2 [COLCHICINE] | Compound NOT metabolized | Compound NOT metabolized | Compound NOT metabolized | Compound NOT metabolized | Compound metabolized | Compound metabolized | Compound metabolized | Compound metabolized | Compound metabolized | Compound metabolized | Compound NOT metabolized | Compound NOT metabolized | Compound NOT metabolized | Compound metabolized | Compound metabolized | Compound NOT metabolized | Compound NOT metabolized | Compound metabolized | Compound NOT metabolized | Compound metabolized

Results, then the compound that gave them:

Row | Bacterial Biotransformation [1] | Bacterial Biotransformation [2] | Bacterial Biotransformation [3] | Bacterial Biotransformation [4] | Bacterial Biotransformation [5] | Bacterial Biotransformation [6] | Bacterial Biotransformation [7] | Bacterial Biotransformation [8] | Bacterial Biotransformation [9] | Bacterial Biotransformation [10] | Bacterial Biotransformation [11] | Bacterial Biotransformation [12] | Bacterial Biotransformation [13] | Bacterial Biotransformation [14] | Bacterial Biotransformation [15] | Bacterial Biotransformation [16] | Bacterial Biotransformation [17] | Bacterial Biotransformation [18] | Bacterial Biotransformation [19] | Bacterial Biotransformation [20] | SMILES
6 | Compound NOT metabolized | Compound NOT metabolized | Compound NOT metabolized | Compound NOT metabolized | Compound metabolized | Compound metabolized | Compound metabolized | Compound metabolized | Compound NOT metabolized | Compound metabolized | Compound metabolized | Compound NOT metabolized | Compound NOT metabolized | Compound NOT metabolized | Compound NOT metabolized | Compound NOT metabolized | Compound NOT metabolized | Compound NOT metabolized | Compound NOT metabolized | Compound NOT metabolized | CC(C)NCC(O)COc1ccc(COCCOC(C)C)cc1.CC(C)NCC(O)COc1ccc(COCCOC(C)C)cc1.O=C(O)/C=C/C(=O)O (stereo not given) [BISOPROLOL FUMARATE]
7 | Compound NOT metabolized | Compound metabolized | Compound NOT metabolized | Compound metabolized | Compound metabolized | Compound metabolized | Compound metabolized | Compound NOT metabolized | Compound metabolized | Compound metabolized | Compound metabolized | Compound NOT metabolized | Compound metabolized | Compound NOT metabolized | Compound NOT metabolized | Compound NOT metabolized | Compound metabolized | Compound metabolized | Compound NOT metabolized | Compound metabolized | Clc1ccc(Cn2c(CN3CCCC3)nc3ccccc32)cc1 [CLEMIZOLE]
8 | Compound metabolized | Compound metabolized | Compound metabolized | Compound metabolized | Compound metabolized | Compound metabolized | Compound metabolized | Compound metabolized | Compound metabolized | Compound metabolized | Compound metabolized | Compound NOT metabolized | Compound metabolized | Compound metabolized | Compound metabolized | Compound metabolized | Compound metabolized | Compound metabolized | Compound NOT metabolized | Compound metabolized | CC(=O)OCC(=O)[C@@]12N=C(C)O[C@@H]1C[C@H]1[C@@H]3CCC4=CC(=O)C=C[C@]4(C)[C@H]3[C@@H](O)C[C@@]12C [DEFLAZACORT]
